Test results as given in patent publication US12458612B2, “Combination therapy comprising compounds of formula (I) and GLP-1 receptor agonists” (GENFIT, priority 2019, dated 2025).

Columns and labels:
NASH-B6 mice = test: Body weight, adiposity and food intake, 8 weeks in NASH-B6 mice (Example 6); type: in vivo; details: liraglutide 0.02 mg/kg/day, 8 weeks (FIG. 13B)
Protocol: Male C57BL/6NTac mice (Taconic, USA) were fed with the GAN diet (D09100310 Research Diet) 31 weeks prior to study start to induce NASH pathology (NASH-B6 model). Prior to treatment, blood was collected by retro-orbital sinus puncture after a 6 h-fasting period to measure plasma ALT, AST, TIMP Metallopeptidase Inhibitor 1 (TIMP1, a surrogate marker of liver fibrosis). Blood glucose was measured directly from the tail vein using a WellionVet glucometer (CALEA) after a 6 h-fasting period. Ketone bodies (KB) was also measured directly from the tail vein using a FreeStyle Optium Neo ketometer. Mice were randomized into treatment groups (n=10/group) based on body weight, glycemia, ketonemia and plasma ALT, AST and TIMP1. They received either vehicles, elafibranor (3 mg/kg/day, per os), liraglutide (0.01 mg/kg, BID, SC) or both elafibranor and liraglutide for 8 weeks. To avoid GLP-1 receptor agonist-induced hypophagia, an up-titration protocol was applied for liraglutide during the first 3 weeks of treatment (starting with 0.001 mg/kg BID). Vehicle-dosed chow-fed mice served as additional controls (R03-10 U8211G10R, SAFE).
Body weight and food intake were monitored each day during the treatment period. On the last day of treatment, serum samples were obtained after retro-orbital sinus puncture blood sampling and mice were sacrificed. […]

DIO-NASH mice [1] = test: Insulinemia (plasma insulin), 40 days in DIO-NASH mice (Example 1); type: in vivo; details: ELA 10 mg/kg/day, SEMA 10 nmol/kg/day, 40 days (FIG. 5)
Protocol: (§1) The effects of elafibranor alone, semaglutide alone and the combination of both were assessed in DIO-NASH mice (C57BL6JRj mice fed with a Amylin Liver NASH Model diet (AMLN) (Research Diet, 40% fat (18% trans-fat), 40% carbohydrate (20% fructose), and 2% cholesterol) (36 weeks prior to study start). 41 weeks old male DIO-NASH mice were fed a vehicule (n=12), or vehicule supplemented with elafibranor (10 mg/kg/day), or semaglutide alone (10 nmol/kg) (titration to final dose over 5 days using increments of 0.08 mg/mL) or in combination (n=12 per group).
(§2) Sampling from tail vein were done during the protocol for, blood glucose, plasma insulin, alanine transaminase, aspartate transaminase, triglycerides, total cholesterol dosages.
The plasmatic insulin was measured using a solid phase two-site enzyme immunoassay from Crystal Chem Inc. (cat #90010). Briefly, 95 μL of guinea-pig anti-insulin serum and 5 μL of diluted sample (or standard) were dispensed per well into a 96-well plate. […] The reaction was then stopped by adding 100 μL of stop solution and absorbance was immediately measured at 450 nm (subtracting wave length: 630 nm). The intensity of the coloration was proportional to the amount of insulin initially present in the sample and was calculated using a standard serum. […]

DIO-NASH mice [2] = test: Histological assessment of NASH, 12 weeks in DIO-NASH mice (Example 3); type: in vivo; details: monotherapy low dose ELA 10 mg/kg/day or SEMA 0.3 nmol/kg/day
Protocol: Male C57BL/6JRj mice were fed with the AMLN diet 35 weeks prior to study start (DIO-NASH model). Mice with biopsy confirmed steatosis (score ≥2) and fibrosis (score ≥1) were randomized into treatment groups (n=12-14 per group). Mice received either vehicles, elafibranor (10 mg/kg/day, per os), semaglutide (0.3 nmol/kg/day, SC) or both elafibranor and semaglutide for 12 weeks. Suboptimal drug doses were used in this study. To avoid SEMA-induced hypophagia, an up-titration protocol was applied during the first 3 weeks of treatment.
On the last day of treatment, plasma samples were obtained after cardiac puncture blood sampling and mice were sacrificed. The liver was rapidly excised for histology and biochemical and transcriptomic analyses.
Liver sections were prepared and stained with hematoxylin eosin safranin (HES) as described in Example 1. The histological features of NASH (steatosis, ballooning, lobular inflammation and fibrosis) were assessed using the NASH Clinical Research Network Scoring System by operators blinded to the experimental groups (Kleiner 2005, Brunt 1999). Steatosis score, activity index (hepatocyte ballooning+lobular inflammation) and NAFLD activity score (NAS) were calculated. Number of inflammatory foci was counted per field using a 200× magnification.

DIO-NASH mice [3] = test: Glycemia (plasma glucose), 40 days in DIO-NASH mice (Example 1); type: in vivo; details: ELA 10 mg/kg/day, SEMA 10 nmol/kg/day, 40 days (FIG. 4)
Protocol: as §1, §2
The plasma glucose level was measured using the Randox kit for Daytona automate (Randox, cat #GL 3815) according to the manufacturer's recommendations. This method was based on a colorimetric assay without any deproteinization of the sample. Briefly, glucose oxidase digestion of the sample led to hydrogen peroxide synthesis. In the presence of phenol and 4-aminophenazone, the hydrogen peroxide was catalyzed by a peroxidase and formed a dye: the quinoneimin. The coloration intensity was directly proportional to the glucose concentration and was measured at 505 nm. Results were expressed in mg/dL.

DIO-NASH mice [4] = test: Hepatic triglyceride content, 40 days in DIO-NASH mice (Example 1); type: in vivo; details: ELA 10 mg/kg/day, SEMA 10 nmol/kg/day, 40 days (FIG. 3)
Protocol: as §1
On the last day of treatment, plasma samples were obtained after cardiac puncture blood sampling and mice were sacrificed. The liver was rapidly excised for biochemical and histological analyses.
Approximately 100 mg of frozen liver tissue were homogenized with a tissue homogenizer (Precellys®24, Bertin Technologies, France) in 150 mM NaCl buffer, containing 15.4 mM NaN3. Lipid fractions in homogenates were extracted with chloroform—methanol (2:1, v/v) followed by measurement of the triglycerides (Biolabo cat #80019).

[5] = tested on: TNFα secretion in LPS-activated macrophages (THP-1); test: TNFα secretion in LPS-activated THP-1 macrophages, combination matrix, HTRF (Example 4); type: cell-based, Human; details: GLP-1 receptor agonist alone; LPS-activated THP1 macrophages (FIGS. 11A-B)
Protocol: Human_THP-1 monocytes were seeded at a density of 25,000 cells per well in 384-well plate in RPMI1640 (Gibco, 21875) supplemented with 10% FBS, 1% Penicillin-streptomycin (Gibco, 15140122) and 25 mM Hepes (Gibco, 15630080) and differentiated into macrophages using PMA (Phorbol 12-myristate 13-acetate, Sigma, P8139) at the final concentration of 100 ng/ml for 24 hours.
A 2 component combination matrix was prepared. ELA and GLP-1 receptor agonists stocks were serially diluted in DMSO in 3-points series in a row (ELA) and a 8-points series in a column of a 96-well plate for GLP1RA. Subsequently, the 3×8 combination matrix was generated by 1:1 mixing of all single agent concentrations.
After 24 hrs with PMA, medium was removed, and replaced by serum free RPMI. […]
Synergism between compounds was determined using the Excess Over Bliss (EOB) method.
The values obtained in the TNFα HTRF assay were first transformed into percentage inhibitions over LPS control. Then, using these percentage inhibitions, EOB were calculated. Expected Bliss additivism score (E) was firstly determined by the equation: E=(A+B)−(A×B) where A and B are the percentage inhibition of elafibranor (A) and GLP-1 analogue (B) at a given dose.
The total Bliss score was calculated by addition of all EOB.

DIO-NASH mice [6] = test: Plasma ALT and CRP in DIO-NASH mice, low/high dose semaglutide (Example 7); type: in vivo
Protocol: (§3) The effects of elafibranor alone, semaglutide (low and high doses) alone and their combination were assessed in DIO-NASH mice (C57BL6JRj mice fed with a Amylin Liver NASH Model diet (AMLN) (Research Diet, 40% fat (18% trans-fat), 40% carbohydrate (20% fructose), and 2% cholesterol) (35 weeks prior to study start). Mice with biopsy confirmed steatosis (score≥2) and fibrosis (score≥1) were randomized into treatment groups (n=12 per group). Mice received either vehicles, elafibranor (10 mg/kg/day, per os), low-dose semaglutide (0.3 nmol/kg/day, SC), high-dose semaglutide (10 nmol/kg/day, SC) or elafibranor (10 mg/kg/day) and semaglutide (0.3 nmol/kg/day) in combination.
On the last treatment day, plasma samples were obtained after cardiac puncture blood sampling and mice were sacrificed. The liver was rapidly excised for transcriptomic analyses.
Alanine aminotransferase (ALT) level was measured using Cobas™ C-501 autoanalyzer according to the manufacturer's instructions. C-reactive protein (CRP) concentration was measured by ELISA (Mouse C-Reactive Protein/CRP Immunoassay MCRP00, R&D Systems).

DIO-NASH mice [7] = test: Liver transcriptomic and gene ontology analysis in DIO-NASH mice (Example 7); type: in vivo
Protocol: as §3, with “combination. […]” for “combination.”
Total RNA was isolated from mice livers using Nucleospin® 96 RNA kit (Macherey Nagel) following manufacturer's instructions. […] The parameters used are an end minimum quality level of 25 and a minimum read length of 50. The unaligned reads were aligned to the Mus musculus mm10 reference genome using the software STAR version 2.5.3. […] Briefly, the count matrix produced by FeatureCounts was analyzed by the DESeqDataSetFromMatrix( ) function followed by the DEseq( ) function from the DESeq2 library. […]
Each metascape analysis was exported as Excel file. The files were imported in R V using the read_excel function from the readxl library (version 1.3.1). […]

CCCCCCCCCCCCCCCC(=O)N[C@@H](CCC(=O)NCCCC[C@H](NC(=O)[C@H](C)NC(=O)[C@H](C)NC(=O)[C@H](CCC(N)=O)NC(=O)CNC(=O)[C@H](CCC(=O)O)NC(=O)[C@H](CC(C)C)NC(=O)[C@H](Cc1ccc(O)cc1)NC(=O)[C@H](CO)NC(=O)[C@H](CO)NC(=O)[C@@H](NC(=O)[C@H](CC(=O)O)NC(=O)[C@H](CO)NC(=O)[C@@H](NC(=O)[C@H](Cc1ccccc1)NC(=O)[C@@H](NC(=O)CNC(=O)[C@H](CCC(=O)O)NC(=O)[C@H](C)NC(=O)[C@@H](N)Cc1cnc[nH]1)[C@@H](C)O)[C@@H](C)O)C(C)C)C(=O)N[C@@H](CCC(=O)O)C(=O)N[C@@H](Cc1ccccc1)C(=O)N[C@H](C(=O)N[C@@H](C)C(=O)N[C@@H](Cc1c[nH]c2ccccc12)C(=O)N[C@@H](CC(C)C)C(=O)N[C@H](C(=O)N[C@@H](CCCNC(=N)N)C(=O)NCC(=O)N[C@@H](CCCNC(=N)N)C(=O)NCC(=O)O)C(C)C)[C@@H](C)CC)C(=O)O [liraglutide]
hypophagia (energy consumption) (NASH-B6 mice): no hypophagia effect

semaglutide: commercially available GLP-1 receptor agonist
insulinemia (DIO-NASH mice [1]): significant beneficial effect
mice showing NAS reduction beyond 1 stage (DIO-NASH mice [2]): None of the mice
glycemia (DIO-NASH mice [3]): no beneficial effect
liver fat / hepatic triglyceride content (DIO-NASH mice [4]): significant beneficial effect
maximal effect, TNFα inhibition [5]: 29%
decrease of plasma CRP relative to AMLN-fed vehicle group (DIO-NASH mice [6]; high-dose semaglutide 10 nmol/kg/day SC (FIG. 18)): 43%
effect on plasma ALT (DIO-NASH mice [6]; low dose semaglutide 0.3 nmol/kg/day SC (FIG. 17)): inefficient
effect on plasma CRP (DIO-NASH mice [6]; low-dose semaglutide 0.3 nmol/kg/day SC (FIG. 18)): inefficient
hepatic gene signature (gene ontology: inflammatory response, cytokine production, immune cell activation and migration) (DIO-NASH mice [7]; high-dose semaglutide 10 nmol/kg/day (FIG. 19)): reverted the pathological signature
hepatic gene signature (gene ontology: inflammatory pathways) (DIO-NASH mice [7]; low-dose SEMA 0.3 nmol/kg/day (FIG. 19)): inefficient
